Measured values as given in patent publication US7208505B2, “β3 adrenergic agonists” (Eli Lilly and Company, priority 2001, dated 2007).

biological target: T1, human β3 adrenergic receptor (Homo sapiens, UniProt P13945); experiment: whole cell receptor coupled c-AMP assay (Emax relative to isoproterenol); type: cell-based; conditions: % intrinsic activity relative to isoproterenol; transfected CHO cells
T1 construct: expressed in transfected cells
Text: The genes encoding the human β1-adrenergic receptor (Frielle et al., Proc. Natl. Acad. Sci., 84:7920–7924, 1987), the human β2-adrenergic receptor (Kobika et al., Proc. Natl. Acad. Sci., 84:46–50, 1987, Emorine et al., Proc. Natl. Acad. Sci., 84:6995–6999, 1987) and the human β3 adrenergic receptor (Granneman et al., Molecular Pharmacology, 44(2):264–70, 1993) are individually subcloned into a phd expression vector (Grinnell et al., Bio/Technology, 5:1189–1192, 1987) and transfected into the DXB-11 Chinese hamster ovary (CHO) cell line by calcium phosphate precipitation methodology. The stably transfected cells are grown to 95% confluency in 95% Dulbecco's modified Eagles Medium (DMEM), 5% fetal bovine serum and 0.01% proline. Media is removed and the cells are washed with phosphate buffered (pH 7.4) saline (without magnesium and calcium). Cells are then lifted using an enzyme free cell dissociation solution (Specialty Media, Lavallette, N.J.) and pelleted by centrifugation.
Cells from each of the above cell lines are resuspended and added (20,000/well) to a 96-well plate. Cells are incubated at 37° C. with representative compounds of the invention for 20 minutes in buffer (Hank's balanced salt solution, 10 mM HEPES, 0.1% BSA, 1 mM L-ascorbic acid, 0.2% dimethyl sulfoxide, 1 mM 3-isobutyl-1-methylxanthine, pH 7.4). After halting the incubation with quench buffer (50 mM Na Acetate, 0.25% Triton X-100, pH 5.8), the c-AMP level is quantified by scintillation proximity assay (SPA) using a modification of the commercially available c-AMP kit (Amersham, Arlington Heights, Ill.) with rabbit anti-cAMP antibody (ICN Biomedicals, Aurora, Ohio) for the kit.
Sigmoidal dose response curves, from the whole cell receptor coupled c-AMP assay are fit to a four parameter logistic equation using non linear regression: y=(a−d)/(1+(Dose/c)^b)+d where a and d are responses at zero and maximal dose, b is the slope factor and c is the EC50 as previously described (DeLean et al., Am. J. Physiol., 235, E97-E102, 1978). EC50 is assessed as the concentration producing 50% of the maximum response to each agonist.
Isoproterenol is accepted in the art as a non-selective β3 agonist and is widely used as a comparator in evaluating the activity of compounds. See Trends in Pharm. Sci., 15:3, 1994. The % intrinsic activity (Emax) of representative compounds of the invention is assessed relative to isoproterenol by the compound's maximal response divided by the isoproterenol maximal response times 100.

T1 sequence (P13945 whole entry): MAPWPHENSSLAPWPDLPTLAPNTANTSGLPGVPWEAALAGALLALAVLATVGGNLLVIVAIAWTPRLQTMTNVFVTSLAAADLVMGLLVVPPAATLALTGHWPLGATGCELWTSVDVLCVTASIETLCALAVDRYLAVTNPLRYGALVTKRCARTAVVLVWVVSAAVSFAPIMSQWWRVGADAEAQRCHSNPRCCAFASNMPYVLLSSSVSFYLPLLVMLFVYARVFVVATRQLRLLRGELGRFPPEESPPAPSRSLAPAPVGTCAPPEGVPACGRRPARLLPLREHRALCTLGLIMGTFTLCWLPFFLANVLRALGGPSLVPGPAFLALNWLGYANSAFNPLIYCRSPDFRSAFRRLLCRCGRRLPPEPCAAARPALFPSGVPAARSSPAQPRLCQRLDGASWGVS

| SMILES | Emax [%] |
| --- | --- |
| CC(Cc1c[nH]c2c(OCC#N)cccc12)NC[C@H](O)COc1ccccc1-c1ccno1 (stereo partly shown) [Example 199] | 22.8 |
| C[C@@H](Cc1c[nH]c2c(F)cc(F)cc12)NC[C@H](O)COc1ccccc1-c1cccs1 [Example 194] | 25.6 |

same assay, conditions: % intrinsic activity: maximal response divided by isoproterenol maximal response times 100; transfected CHO cells; average of at least 3 runs

| Emax (%) ± SEM [%] | SMILES |
| --- | --- |
| 69.0 ± 2.3 | CC(C)(Cc1c[nH]c2ccccc12)NC[C@H](O)COc1ccccc1-c1ccc(C#N)s1.Cl [Example 11] |
| 47.2 ± 0.3 | COC(=O)c1ccc2c(CC(C)(C)NC[C@H](O)COc3ccccc3-c3cccs3)c[nH]c2c1 [Example 75] |
| 70.5 ± 3.8 | CC(C)(Cc1c[nH]c2c(C=Cc3cnccn3)cccc12)NC[C@H](O)COc1ccccc1-c1cccs1 [Example 188] |
| 73.1 ± 1.0 | CCOC(=O)c1cccc(-c2cccc3c(CC(C)(C)NC[C@H](O)COc4ccccc4-c4ccon4)c[nH]c23)c1 [Example 41] |
| 55.0 ± 1.1 | CC(C)(Cc1c[nH]c2cc(F)ccc12)NC[C@H](O)COc1ccccc1-c1ccon1 [Example 172] |
| 78.0 ± 8.5 | CC(C)(Cc1c[nH]c2c(-c3ccsc3)cccc12)NC[C@H](O)COc1ccccc1-c1cccs1 [Example 106] |
| 47.3 ± 2.3 | CC(C)(Cc1c[nH]c2c(C=Cn3cncn3)cccc12)NCC(O)COc1ccccc1-c1cccs1 (stereo not shown) [Example 146] |
| 43.4 ± 2.0 | CC(C)(Cc1c[nH]c2ccccc12)NC[C@H](O)COc1ccc(F)cc1-c1ccon1 [Example 80] |
| 53.0 ± 1.8 | CC(C)(Cc1c[nH]c2cc(F)ccc12)NC[C@H](O)COc1ccccc1-c1nccs1 [Example 159] |
| 22.2 ± 4.5 | O[C@@H](CNCCn1ccc2ccccc21)COc1ccccc1-c1cccs1 [Example 64] |
| 82.0 ± 4.3 | CC(C)(Cc1c[nH]c2c(-c3cccc(C(F)(F)F)c3)cccc12)NC[C@H](O)COc1ccccc1-c1cccs1 [Example 37] |
| 70.3 ± 5.7 | CC(C)(Cc1c[nH]c2c(OCC(=O)O)cccc12)NC[C@H](O)COc1ccccc1-c1cccs1.Cl [Example 226] |
| 90.4 ± 3.8 | CC(C)(Cc1c[nH]c2c(C(=O)O)cccc12)NC[C@H](O)COc1ccccc1-c1ccc(C#N)s1 [Example 90] |
| 68.0 ± 4.1 | CC(C)(Cc1c[nH]c2c(-c3cccs3)cccc12)NC[C@H](O)COc1ccccc1-c1ccon1 [Example 109] |
| 62.1 ± 3.3 | CC(C)(Cc1c[nH]c2cc(OCC#N)ccc12)NC[C@H](O)COc1ccccc1-c1cccs1 [Example 168] |
| 57.1 ± 2.4 | CC(C)(Cc1c[nH]c2c(-c3ccc(C(N)=O)cc3)cccc12)NC[C@H](O)COc1ccccc1-c1ccon1 [Example 103] |

| Emax (%) ± SEM [%] | SMILES |
| --- | --- |
| 44.3 ± 3.9 | CC(C)(Cc1c[nH]c2c(OCC#N)cccc12)NC[C@H](O)COc1ccccc1-c1nncs1 [Example 160] |
| 73.9 ± 1.3 | CC(C)(Cc1c[nH]c2cc(C#N)ccc12)NC[C@H](O)COc1ccccc1-c1cccs1 [Example 77] |
| 76.5 ± 3.0 | CC(C)(Cc1c[nH]c2c(Oc3ncccc3C#N)cccc12)NC[C@H](O)COc1ccccc1-c1ccon1 [Example 113] |
| 66.5 ± 0.4 | CC(C)(Cc1c[nH]c2c(C=Cn3ccnc3)cccc12)NC[C@H](O)COc1ccccc1-c1cccs1 [Example 186] |
| 72.5 ± 2.2 | COC(=O)c1ccc(-c2cccc3c(CC(C)(C)NC[C@H](O)COc4ccccc4-c4cccs4)c[nH]c23)cc1 [Example 178] |
| 90.0 ± 6.6 | CC(C)(Cc1c[nH]c2c(NS(C)(=O)=O)cccc12)NC[C@H](O)COc1ccccc1-c1ccc(S(N)(=O)=O)s1 [Example 30] |
| 73.3 ± 5.9 | CC(C)(Cc1c[nH]c2c(CCC#N)cccc12)NC[C@H](O)COc1ccccc1-c1cccs1 [Example 144] |
| 72.7 ± 5.3 | CC(C)(Cc1c[nH]c2c(-c3ccc(C(F)(F)F)cc3C(F)(F)F)cccc12)NC[C@H](O)COc1ccccc1-c1cccs1 [Example 110] |
| 51.3 ± 7.8 | CC(C)(Cc1c[nH]c2ccccc12)NC[C@H](O)COc1ccccc1-c1cccs1 [Example 157] |
| 78.0 ± 2.8 | CC(C)(Cc1c[nH]c2c(-c3cccc(C(F)(F)F)c3)cccc12)NC[C@H](O)COc1ccccc1-c1ccon1 [Example 38] |
| 64.5 ± 1.7 | CC(C)(Cc1c[nH]c2c(C=Cc3ccc(S(N)(=O)=O)cc3)cccc12)NC[C@H](O)COc1ccccc1-c1cccs1 [Example 189] |
| 73.3 ± 4.6 | CCOC(=O)c1cccc(-c2cccc3c(CC(C)(C)NC[C@H](O)COc4ccccc4-c4cccs4)c[nH]c23)c1 [Example 40] |
| 81.0 ± 3.2 | CC(C)(Cc1c[nH]c2c(NS(C)(=O)=O)cccc12)NC[C@H](O)COc1ccccc1-c1cccs1 [Example 27] |
| 71.5 ± 7.9 | CC(C)(Cc1c[nH]c2c(-c3cccs3)cccc12)NC[C@H](O)COc1ccccc1-c1cccs1 [Example 108] |
| 41.1 ± 3.5 | CC(C)(Cc1c[nH]c2c(C(N)=O)cccc12)NC[C@H](O)COc1ccccc1-c1ccon1 [Example 175] |
| 74.0 ± 3.1 | CC(C)(Cc1c[nH]c2c(OCC#N)cccc12)NC[C@H](O)COc1ccccc1-c1ccsc1.Cl [Example 52] |

| SMILES | Emax (%) ± SEM [%] |
| --- | --- |
| Cc1ccc(-c2ccccc2OC[C@@H](O)CNC(C)(C)Cc2c[nH]c3ccccc23)s1.O=C(O)C(F)(F)F [Example 13] | 63.4 ± 0.3 |
| CC(Cc1cn(C)c2c(F)cc(F)cc12)NCC(O)COc1ccccc1-c1cccs1 (stereo not shown) [Example 197] | 34.5 ± 4.2 |
| CC(C)(Cc1c[nH]c2c(OCC#N)cccc12)NC[C@H](O)COc1ccccc1-c1ccc(C#N)s1.O=C(O)C(F)(F)F [Example 12] | 77.7 ± 4.6 |
| CC(C)(Cc1c[nH]c2ccccc12)NC[C@H](O)COc1ccccc1-c1cc(C#N)cs1.O=C(O)C(F)(F)F [Example 19] | 49.1 ± 4.6 |
| CC(C)(Cc1c[nH]c2c(OCC#N)cccc12)NC[C@H](O)COc1ccccc1-c1cc(C#N)cs1.O=C(O)C(F)(F)F [Example 20] | 59.1 ± 3.1 |

same assay, conditions: CHO, % intrinsic activity relative to isoproterenol; transfected CHO cells

| Emax [%] | SMILES |
| --- | --- |
| 67 | CC(C)(Cc1c[nH]c2cc(C(=O)O)ccc12)NC[C@H](O)COc1ccccc1-c1nccs1 [Example 204] |
| 85 | CC(C)(Cc1c[nH]c2c(OCC#N)cccc12)NC[C@H](O)COc1ccccc1-c1ccc(C#N)s1 [Example 202] |
| 8.9 | C[C@@H](CN1CCc2cc(F)c(Cl)cc21)NC[C@H](O)COc1ccccc1-c1cccs1 [Example 195] |

same assay, conditions: CHO, % intrinsic activity: maximal response divided by isoproterenol maximal response times 100; transfected CHO cells; average of at least 3 runs

| Emax [%] | SMILES |
| --- | --- |
| < 10 | CC(C)(Cc1c[nH]c2cccc(C(=O)O)c12)NC[C@H](O)COc1ccccc1-c1cccs1 [Example 238] |
| 52.4 ± 6 | CC(C)(Cc1c[nH]c2c(OCC(=O)O)cccc12)NC[C@H](O)COc1ccccc1-c1ccno1 [Example 233] |
| 88.4 ± 3.9 | CC(C)(Cc1c[nH]c2cc(OCC(=O)O)ccc12)NC[C@H](O)COc1ccccc1-c1cccs1 [Example 236] |
| 81.8 ± 8.5 | CC(C)(Cc1c[nH]c2cccc(C(N)=O)c12)NC[C@H](O)COc1ccccc1-c1cccs1 [Example 257] |
| 63.3 ± 3 | CC(C)(Cc1c[nH]c2c(Oc3ccc(C(N)=O)cn3)cccc12)NC[C@H](O)COc1ccccc1-c1ccon1 [Example 245] |
| 76.7 ± 4.4 | C[C@H](Cn1ccc2c(OCC(=O)O)cccc21)NC[C@H](O)COc1ccccc1-c1ccns1 [Example 235] |

| SMILES | Emax [%] |
| --- | --- |
| CC(C)(Cc1c[nH]c2c(OCC#N)cccc12)NC[C@H](O)COc1ccccc1-n1cccc1 [Example 256] | 71.4 ± 2.7 |
